{"source": "paper PMC7367283", "about": "“A PIP2 substitute mediates voltage sensor-pore coupling in KCNQ activation” (Communications Biology, 2020)", "molecular_target": "NaV1.5 (Homo sapiens, UniProt Q14524)", "sequence (Q14524 whole entry)": "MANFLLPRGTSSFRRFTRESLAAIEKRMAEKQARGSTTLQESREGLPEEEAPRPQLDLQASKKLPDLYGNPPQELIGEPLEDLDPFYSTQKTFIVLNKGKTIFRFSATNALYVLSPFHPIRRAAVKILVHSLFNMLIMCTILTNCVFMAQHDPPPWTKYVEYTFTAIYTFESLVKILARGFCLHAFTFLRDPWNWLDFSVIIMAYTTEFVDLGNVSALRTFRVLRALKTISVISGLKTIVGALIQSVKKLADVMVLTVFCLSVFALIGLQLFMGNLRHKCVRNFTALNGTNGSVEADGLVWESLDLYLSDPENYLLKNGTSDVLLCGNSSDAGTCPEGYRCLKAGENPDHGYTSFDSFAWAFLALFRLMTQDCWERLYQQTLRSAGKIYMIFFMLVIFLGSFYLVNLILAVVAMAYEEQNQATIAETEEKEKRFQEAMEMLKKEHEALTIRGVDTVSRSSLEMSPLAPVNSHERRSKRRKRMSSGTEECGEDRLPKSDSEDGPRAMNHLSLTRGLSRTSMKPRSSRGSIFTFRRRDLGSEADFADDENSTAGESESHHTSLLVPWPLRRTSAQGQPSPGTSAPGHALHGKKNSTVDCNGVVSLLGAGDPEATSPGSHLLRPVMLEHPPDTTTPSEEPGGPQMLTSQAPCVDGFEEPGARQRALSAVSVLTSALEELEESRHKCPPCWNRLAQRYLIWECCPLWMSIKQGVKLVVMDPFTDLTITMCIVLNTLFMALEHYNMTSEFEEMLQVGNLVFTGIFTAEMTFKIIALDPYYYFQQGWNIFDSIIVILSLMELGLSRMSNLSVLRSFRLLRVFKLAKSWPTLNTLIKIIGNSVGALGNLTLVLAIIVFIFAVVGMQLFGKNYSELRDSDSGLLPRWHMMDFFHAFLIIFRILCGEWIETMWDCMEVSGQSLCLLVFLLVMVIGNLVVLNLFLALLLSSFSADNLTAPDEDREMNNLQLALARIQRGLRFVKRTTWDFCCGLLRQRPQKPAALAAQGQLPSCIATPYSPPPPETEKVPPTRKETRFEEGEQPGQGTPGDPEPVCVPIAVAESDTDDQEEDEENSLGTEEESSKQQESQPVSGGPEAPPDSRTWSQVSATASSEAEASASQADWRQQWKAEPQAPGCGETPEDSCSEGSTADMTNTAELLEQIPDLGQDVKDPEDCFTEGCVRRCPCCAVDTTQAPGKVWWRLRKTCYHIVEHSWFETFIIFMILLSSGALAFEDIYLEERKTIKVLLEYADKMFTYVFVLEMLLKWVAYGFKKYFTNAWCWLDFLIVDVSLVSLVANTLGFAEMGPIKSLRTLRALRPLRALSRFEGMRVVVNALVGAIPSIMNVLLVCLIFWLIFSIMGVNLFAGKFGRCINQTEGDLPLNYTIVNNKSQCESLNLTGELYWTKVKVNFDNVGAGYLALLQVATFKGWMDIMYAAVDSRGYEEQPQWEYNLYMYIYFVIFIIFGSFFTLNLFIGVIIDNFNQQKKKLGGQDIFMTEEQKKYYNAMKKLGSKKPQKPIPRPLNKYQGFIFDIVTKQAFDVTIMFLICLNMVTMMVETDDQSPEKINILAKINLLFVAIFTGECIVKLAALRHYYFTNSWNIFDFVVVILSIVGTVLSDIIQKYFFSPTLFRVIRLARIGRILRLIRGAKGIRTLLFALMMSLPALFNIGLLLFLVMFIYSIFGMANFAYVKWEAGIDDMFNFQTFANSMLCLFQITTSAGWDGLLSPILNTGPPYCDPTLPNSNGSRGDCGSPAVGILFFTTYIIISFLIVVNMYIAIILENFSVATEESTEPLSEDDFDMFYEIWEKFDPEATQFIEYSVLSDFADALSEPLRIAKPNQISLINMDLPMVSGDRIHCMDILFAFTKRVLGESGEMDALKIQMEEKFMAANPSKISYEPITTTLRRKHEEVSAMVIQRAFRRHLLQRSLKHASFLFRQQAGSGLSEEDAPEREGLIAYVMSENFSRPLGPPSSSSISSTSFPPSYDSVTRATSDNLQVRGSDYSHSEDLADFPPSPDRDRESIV", "sequence (Q07699 19-218 partner)": "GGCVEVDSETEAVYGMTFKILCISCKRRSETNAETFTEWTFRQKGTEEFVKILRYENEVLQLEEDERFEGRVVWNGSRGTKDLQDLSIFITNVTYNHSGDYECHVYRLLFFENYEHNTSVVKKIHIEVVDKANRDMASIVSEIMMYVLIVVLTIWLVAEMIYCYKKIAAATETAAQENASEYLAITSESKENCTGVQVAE", "test": "Cut-open oocyte recording of NaV1.5", "type": "cell-based", "settings": "10 µM CP1", "description": "Since CP1 has a similar effect to PIP2 in mediating VSD-pore coupling in KCNQ channels, we tested if CP1 has effects on other ion channels that are also sensitive to PIP2 or are voltage activated and share general structural features of the VSD and the pore with KCNQ. […] On the other hand, NaV1.5 and KV4.2 are voltage-gated ion channels.\nFig. 6 Effects of CP1 on other ion channels expressed in Xenopus oocytes. a Currents of Kir1.1, CaV1.2, NaV1.5, hERG, and KV4.2 before and after application of 10 µM CP1, respectively. The voltages for holding, test, and returning pulses were Kir1.1, 0 mV, −100 to +60 mV, 0; CaV1.2, −100 mV, −100 to +60, −100 mV; NaV1.5, −100, −120 to +40 mV, −120 mV; hERG, −80 mV, −90 to +60 mV, −60 mV; KV4.2, −80 mV, −100 mV to +80 mV, −40 mV; HCN4, −30 mV, −30 to −140 mV, −120 mV. b Current–voltage relations of Kir1.1 channel in the absence or presence of 10 µM CP1 (n = 7). c–g G–V relations of indicated channels with and without 10 µM CP1. The ΔV1/2 of G–V relations (mV) are CaV1.2, 3.38 ± 0.71 mV (c); NaV1.5, −2.26 ± 0.95 mV (d); hERG, 6.85 ± 1.81 mV (e); KV 4.2, −2.26 ± 2.88 mV (f); HCN4, 17.13 ± 1.59 mV (g).\nComplementary DNA (cDNA) encoding human KCNQ1 (UniProtKB/Swiss‐Prot under accession no. P51787), KCNQ2 (O43526), KCNQ3 (O43525), KCNE1 (P15382), Kir1.1 (P48048), hERG (Q12809), KV4.2 (Q63881), NaV1.5 (Q14524), NaV β1 (Q07699), CaV1.2 (Q13936), CaV β1a (Q02641), CaV α2/δ1 (P54289), and HCN4 (Q9Y3Q4) were subcloned into oocyte expression vectors, respectively. Site-directed mutations of the KCNQ1 channel were all produced by overlap extension polymerase chain reaction (PCR) with high-fidelity Pfu polymerase (Stratagene, CA). The presence of the desired mutation was verified by sequencing the PCR-amplified regions. All the primer sequences used in this study are available in Supplementary Table 1. The complementary RNA (cRNA) of all these channels and mutations was transcribed in vitro with the T3, T7, or SP6 polymerase mMessage mMachine kit (Invitrogen, Thermo Fisher Scientific, MO).\nThe use of Xenopus laevis to obtain oocytes was approved by the Washington University Animal Studies Committee (protocol #20190030). Oocytes were manually dispersed and digested with collagenase (0.5 mg/ml, Sigma-Aldrich, Saint Louis, MO) to remove the follicle cell layer. Stage V or VI oocytes were selected and injected with cRNAs (9.2 ng) of channel or mutations. Especially, to characterize IKs, a mix of cRNAs at a molar ratio 4:1 (KCNQ1:KCNE1) was injected. For KCNQ2/KCNQ3, the molar ratio was 1:1 (KCNQ2:KCNQ3). For sodium channels, a 3:1 molar ratio (β1:NaV1.5) and for calcium channels a weight ratio 1:1:1 (β1:α2/δ1:CaV1.2) was injected, respectively. Injected oocytes were incubated in ND96 solution containing (in mM) 96 NaCl, 2 KCl, 1.8 CaCl2, 1 MgCl2, and 5 HEPES, pH 7.6, supplemented with 2.5 mM Na pyruvate and 1% penicillin–streptomycin, at 18 °C for 3–7 days before recording.\nNaV1.5 currents were recorded with a cut-open amplifier (CA-1B, Dagan Corporation) coupled with an A/D converter (Digidata 1440, Molecular Devices). The data were acquired using Clampex software (v10, Molecular Devices). The internal solution was composed of (mM) 105 NMG‐Mes, 10 Na‐Mes, 20 HEPES, and 2 EGTA, pH 7.4. The external solution was composed of (mM) 25 NMG‐Mes, 90 Na‐Mes, 20 HEPES, and 2 Ca‐Mes2, pH 7.4. The ionic currents were recorded using the standard I–V protocol. From a holding potential of −120 mV, cells were stepped to a 100-ms prepulse of −120 mV and then stepped to test potentials ranging from −120 to 60 mV with 20-mV increment, […] a 100-ms postpulse of −120 mV.", "data": [{"compound": "O=S(=O)([O-])Oc1c(-c2sc3c(ccc4cccc(Cl)c43)c2OS(=O)(=O)[O-])[nH]c2ccc(Br)cc12.[Na+].[Na+]", "note": "[CP1, DISODIUM 5-BROMO-2-[9-CHLORO-3-(SULFONATOOXY) NAPHTHO [1,2-B] THIEN-2-YL]-1H-INDOL-3-YL SULFATE]", "values": [{"measurement": "ΔV1/2 of G–V relations", "result": "−2.26 ± 0.95", "unit": "mV"}, {"measurement": "G/Gmax Mean (Fig. 6d)", "setting": "voltage 0 mV", "result": 0.9380}, {"measurement": "G/Gmax Mean (Fig. 6d)", "setting": "voltage 20 mV", "result": 1.0000}, {"measurement": "G/Gmax Mean (Fig. 6d)", "setting": "voltage -20 mV", "result": 0.9095}, {"measurement": "G/Gmax Mean (Fig. 6d)", "setting": "voltage -40 mV", "result": 0.8354}, {"measurement": "G/Gmax Mean (Fig. 6d)", "setting": "voltage -60 mV", "result": 0.4098}, {"measurement": "G/Gmax Mean (Fig. 6d)", "setting": "voltage -80 mV", "result": 0.0040}, {"measurement": "G/Gmax Mean (Fig. 6d)", "setting": "voltage -100 mV", "result": 0.0015}, {"measurement": "G/Gmax Mean (Fig. 6d)", "setting": "voltage -120 mV", "result": 0.0016}]}]}
